Measurements as given in ChEMBL document CHEMBL5550194, “Design and synthesis of phosphoryl-substituted steroidal pyridazines (Pho-STPYRs) as potent estrogen receptor alpha inhibitors: targeted treatment of hormone-dependent breast cancer cells” (RSC Med Chem, 2024).
pIC50: −log10 of the molar value. Calls of active or inactive are those of the source. No cut-off for these calls is given here.

What was measured:
[1] = system: MCF7; test: Antiproliferative activity against human MCF7 cells assessed as inhibition of cell growth incubated for 72 hrs by MTT assay; format: functional, cell-based; settings: MCF7, 72 h
[2] = system: MDA-MB-231; test: Antiproliferative activity against human MDA-MB-231 cells assessed as inhibition of cell growth incubated for 72 hrs by MTT assay; format: functional, cell-based; settings: MDA-MB-231, 72 h
[3] = Cytotoxicity against human THP-1 cells assessed as inhibition of cell growth incubated for 72 hrs by MTT assay; format: toxicity, cell-based
[4] = system: MCF7; test: Anti-estrogenic activity in human MCF7 cells assessed as reduction in ERalpha protein expression at 1.7 to 15 uM measured after 48 hrs by immunoblot analysis; format: functional, cell-based; settings: dose 1.7-15 µM
[5] = system: MCF7; test: Anti-estrogenic activity in human MCF7 cells assessed as reduction in GREB1 protein expression at 1.7 to 15 uM measured after 48 hrs by immunoblot analysis; format: functional, cell-based; settings: dose 1.7-15 µM
[6] = system: MCF7; test: Anti-estrogenic activity in human MCF7 cells transfected with luciferase gene under control of estrogen response elements cotransfected with beta-galactosidase assessed as reduction in 17beta-estradiol induced ERalpha protein expression by measuring reduction in luciferase activity measured after 24 hrs; format: functional, cell-based; settings: dose 1.7-20 µM
[7] = system: MCF7; test: Effect on E-cadherin protein expression in human MCF7 cells at 1.7 to 15 uM measured after 48 hrs by immunoblot analysis; format: functional, cell-based; settings: dose 1.7-15 µM
[8] = system: MCF7; test: Effect on activated AKT protein level in human MCF7 cells at 1.7 to 15 uM measured after 48 hrs by immunoblot analysis; format: functional, cell-based; settings: dose 1.7-15 µM
[9] = system: MCF7; test: Downregulation of cyclin D1 protein expression in human MCF7 cells at 1.7 to 15 uM measured after 48 hrs by immunoblot analysis; format: functional, cell-based; settings: dose 1.7-15 µM
[10] = system: MCF7; test: Downregulation of CDK4 protein expression in human MCF7 cells at 1.7 to 15 uM measured after 48 hrs by immunoblot analysis; format: functional, cell-based; settings: dose 1.7-15 µM
[11] = system: MCF7; test: Induction of cell death in human MCF7 cells assessed as accumulation of cleaved PARP level at 1.7 to 15 uM measured after 48 hrs by immunoblot analysis; format: functional, cell-based; settings: dose 1.7-15 µM
[12] = system: MCF7; test: Induction of cell death in human MCF7 cells assessed as reduction in Bcl-2 protein expression measured after 48 hrs by immunoblot analysis; format: functional, cell-based; settings: dose 1.7-15 µM
[13] = target: Cytochrome P450 7A1 (Homo sapiens, UniProt P22680); test: Binding affinity to recombinant human CYP7A1 by spectrophotometric titration method; format: ADME; settings: recombinant enzyme
Chain of Cytochrome P450 7A1 (P22680 whole entry): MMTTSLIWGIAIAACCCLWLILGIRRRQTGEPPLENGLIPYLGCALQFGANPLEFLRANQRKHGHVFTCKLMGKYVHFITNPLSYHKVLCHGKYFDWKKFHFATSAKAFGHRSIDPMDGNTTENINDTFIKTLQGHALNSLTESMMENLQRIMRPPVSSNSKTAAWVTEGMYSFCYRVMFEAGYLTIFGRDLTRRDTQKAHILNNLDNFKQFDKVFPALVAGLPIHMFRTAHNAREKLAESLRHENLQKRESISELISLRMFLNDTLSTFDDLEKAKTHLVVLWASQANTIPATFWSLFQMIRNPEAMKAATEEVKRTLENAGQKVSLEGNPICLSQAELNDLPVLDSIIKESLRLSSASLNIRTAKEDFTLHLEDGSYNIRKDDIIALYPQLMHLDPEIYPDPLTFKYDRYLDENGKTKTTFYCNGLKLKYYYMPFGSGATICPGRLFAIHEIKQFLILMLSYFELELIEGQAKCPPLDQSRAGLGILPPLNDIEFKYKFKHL

[14] = target: T1, Cytochrome P450 7B1 (Homo sapiens, UniProt O75881); test: Binding affinity to recombinant human CYP7B1 by spectrophotometric titration method; format: ADME; settings: recombinant enzyme
T1 sequence (O75881 whole entry): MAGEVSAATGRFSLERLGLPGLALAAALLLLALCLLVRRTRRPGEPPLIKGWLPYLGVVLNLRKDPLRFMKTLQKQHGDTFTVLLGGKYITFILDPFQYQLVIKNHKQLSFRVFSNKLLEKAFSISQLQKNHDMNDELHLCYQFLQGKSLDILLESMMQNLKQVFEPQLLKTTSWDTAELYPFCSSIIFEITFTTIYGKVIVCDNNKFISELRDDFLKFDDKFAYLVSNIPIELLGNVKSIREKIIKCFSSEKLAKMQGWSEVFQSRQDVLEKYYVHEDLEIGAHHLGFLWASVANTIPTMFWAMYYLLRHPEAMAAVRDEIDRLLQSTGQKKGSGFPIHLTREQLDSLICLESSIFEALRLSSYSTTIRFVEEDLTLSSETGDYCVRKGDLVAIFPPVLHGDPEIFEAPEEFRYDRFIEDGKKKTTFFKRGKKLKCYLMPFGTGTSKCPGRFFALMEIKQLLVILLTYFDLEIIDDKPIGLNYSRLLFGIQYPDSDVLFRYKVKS

[15] = target: T2, Steroid 17-alpha-hydroxylase/17,20 lyase (Homo sapiens, UniProt P05093); test: Binding affinity to recombinant human CYP17A1 by spectrophotometric titration method; format: ADME; settings: recombinant enzyme
T2 sequence (P05093 whole entry): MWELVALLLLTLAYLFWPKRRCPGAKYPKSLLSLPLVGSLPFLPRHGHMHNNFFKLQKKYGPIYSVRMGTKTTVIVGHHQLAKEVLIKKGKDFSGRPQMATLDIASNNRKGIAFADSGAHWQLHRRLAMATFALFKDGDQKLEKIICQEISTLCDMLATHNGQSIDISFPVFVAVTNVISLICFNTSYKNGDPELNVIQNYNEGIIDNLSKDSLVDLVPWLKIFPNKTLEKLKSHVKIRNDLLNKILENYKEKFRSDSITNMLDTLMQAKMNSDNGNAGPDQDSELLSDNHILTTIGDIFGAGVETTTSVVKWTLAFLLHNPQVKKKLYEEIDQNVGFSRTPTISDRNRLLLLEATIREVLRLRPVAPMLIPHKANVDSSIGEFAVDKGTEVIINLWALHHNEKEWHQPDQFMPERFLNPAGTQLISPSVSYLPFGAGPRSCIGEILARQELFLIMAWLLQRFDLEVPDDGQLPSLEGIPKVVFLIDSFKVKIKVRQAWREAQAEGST

[16] = target: T3, Aromatase (Homo sapiens, UniProt P11511); test: Binding affinity to recombinant human CYP19A1 by spectrophotometric titration method; format: ADME; settings: recombinant enzyme
T3 sequence (P11511 whole entry): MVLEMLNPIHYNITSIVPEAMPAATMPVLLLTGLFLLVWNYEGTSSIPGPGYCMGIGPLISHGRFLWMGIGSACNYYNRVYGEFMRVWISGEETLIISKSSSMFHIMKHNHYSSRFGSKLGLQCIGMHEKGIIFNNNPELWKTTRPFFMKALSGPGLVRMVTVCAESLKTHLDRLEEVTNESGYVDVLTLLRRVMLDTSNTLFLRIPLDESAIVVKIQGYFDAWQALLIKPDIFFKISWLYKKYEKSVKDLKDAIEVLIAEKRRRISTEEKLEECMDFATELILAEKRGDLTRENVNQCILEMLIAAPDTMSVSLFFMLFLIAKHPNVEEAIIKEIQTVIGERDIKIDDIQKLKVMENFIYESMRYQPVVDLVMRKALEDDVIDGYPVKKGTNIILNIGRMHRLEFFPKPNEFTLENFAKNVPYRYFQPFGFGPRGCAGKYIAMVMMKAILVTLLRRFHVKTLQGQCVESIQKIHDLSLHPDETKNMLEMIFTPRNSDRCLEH

[17] = target: T4, Steroid 21-hydroxylase (Homo sapiens, UniProt P08686); test: Binding affinity to recombinant human CYP21A2 by spectrophotometric titration method; format: ADME; settings: recombinant enzyme
T4 sequence (P08686 whole entry): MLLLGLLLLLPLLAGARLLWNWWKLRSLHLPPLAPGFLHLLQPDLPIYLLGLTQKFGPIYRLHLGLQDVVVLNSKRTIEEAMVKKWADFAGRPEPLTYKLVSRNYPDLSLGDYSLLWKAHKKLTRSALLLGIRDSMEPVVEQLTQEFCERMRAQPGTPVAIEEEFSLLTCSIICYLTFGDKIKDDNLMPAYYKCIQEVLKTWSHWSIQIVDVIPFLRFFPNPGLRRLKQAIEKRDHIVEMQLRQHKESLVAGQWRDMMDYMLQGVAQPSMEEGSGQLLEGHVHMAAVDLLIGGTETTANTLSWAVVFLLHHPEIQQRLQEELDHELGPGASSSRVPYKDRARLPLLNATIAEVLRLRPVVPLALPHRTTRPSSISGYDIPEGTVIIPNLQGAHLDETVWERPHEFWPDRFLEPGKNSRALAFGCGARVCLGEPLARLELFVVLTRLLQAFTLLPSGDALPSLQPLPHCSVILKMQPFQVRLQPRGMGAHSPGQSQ

| SMILES | pIC50 [1] | pIC50 [2] | also measured |
| --- | --- | --- | --- |
| C[C@]12CC[C@@H]3c4ccc(O)cc4CC[C@H]3[C@@H]1Cc1cnnc(P(=O)(Nc3ccccc3)Nc3ccccc3)c12 | < 4.60 | < 4.60 |  |
| CC(=O)O[C@H]1CC[C@@]2(C)C(=CC[C@@H]3[C@@H]2CC[C@]2(C)c4c(cnnc4P(=O)(Nc4ccccc4)Nc4ccccc4)C[C@@H]32)C1 | < 4.60 | < 4.60 |  |
| C[C@]12CC[C@H]3[C@@H](CCC4Cc5c(cnnc5P(=O)(c5ccccc5)c5ccccc5)C[C@@]43C)[C@@H]1CC[C@@H]2O (stereo partly specified) | 5.15 | 5.05 |  |
| CC/C(=C(\c1ccc(O)cc1)c1ccc(OCCN(C)C)cc1)c1ccccc1 [AFIMOXIFENE] | 5.28 |  |  |
| CC(C)(C)NP(=O)(NC(C)(C)C)c1nncc2c1[C@@]1(C)CC[C@H]3[C@@H](CC[C@H]4C[C@@H](O)CC[C@@]43C)[C@@H]1C2 | < 4.60 | < 4.60 |  |
| COc1cccc2c1C(=O)c1c(O)c3c(c(O)c1C2=O)C[C@@](O)(C(=O)CO)C[C@@H]3O[C@H]1C[C@H](N)[C@H](O)[C@H](C)O1 [DOXORUBICIN] | 6.55 | 6.57 | IC50 at 72 h [3]: 0.045 µM |
| C[C@]12CC[C@H](O)CC1=CC[C@@H]1[C@@H]2CC[C@]2(C)c3c(cnnc3P(=O)(Nc3ccccc3)Nc3ccccc3)C[C@@H]12 | 4.73 | < 4.60 |  |
| C[C@]12CC[C@H](O)C[C@@H]1CC[C@@H]1[C@@H]2CC[C@]2(C)c3c(cnnc3P(=O)(Nc3ccccc3)Nc3ccccc3)C[C@@H]12 | 4.77 | < 4.60 |  |
| COc1ccc2c(c1)CC[C@@H]1[C@@H]2CC[C@]2(C)c3c(cnnc3P(=O)(Nc3ccccc3)Nc3ccccc3)C[C@@H]12 | < 4.60 | < 4.60 |  |
| C[C@]12CCC(=O)C=C1CC[C@@H]1[C@@H]2CC[C@]2(C)c3c(cnnc3P(=O)(c3ccccc3)c3ccccc3)C[C@@H]12 | 5.19 | 4.74 | Activity [4]: Active; Activity [5]: inactive; Activity [6]: Dose-Dependent Effect; Activity [7]: inactive; Activity [8]: inactive; Activity [9]: Active; Activity [10]: Active; Activity [11]: Active; Activity [12]: Dose-Dependent Effect; Activity [13]: Not Active; Activity [14]: Not Active; Activity [15]: Not Active; Activity [16]: Not Active; Activity [17]: Not Active |
| COc1ccc2c(c1)CC[C@@H]1[C@@H]2CC[C@]2(C)c3c(cnnc3P(=O)(c3ccccc3)c3ccccc3)C[C@@H]12 | 5.07 | 4.87 |  |
